Test results: patent publication US8026342B2, “Compositions and methods for binding sphingosine-1-phosphate” (Lpath, Inc., priority 2006, dated 2011)

B1: LT1002: murine anti-S1P monoclonal antibody, IgG1 kappa, from hybridoma clone 306D326.26 (antibody, listed as Mus sp., V domains shown)
VH: QAHLQQSDAELVKPGASVKISCKVSGFIFIDHTIHWMKQRPEQGLEWIGCISPRHDITKYNEMFRGKATLTADKSSTTAYIQVNSLTFEDSAVYFCARGGFYGSTIWFDFWGQGTTLTVS
VL: ETTVTQSPASLSMAIGEKVTIRCITTTDIDDDMNWFQQKPGEPPNLLISEGNILRPGVPSRFSSSGYGTDFLFTIENMLSEDVADYYCLQSDNLPFTFGSGTKLEIK

Experiments:
[1] = test system: HT29 tumor; assay: SC HT29 colorectal tumor xenograft; type: in vivo, athymic NCr-nu/nu mice; details: LT1009 50 mg/kg ip q2d; Avastin 20 mg/kg iv q4d; 5-FU 75 mg/kg ip q4d
Description: Nude mice were implanted sc near the right flank with one fragment per mouse of HT29 tumor from an in vivo passage. All treatments were initiated the day when 60 mice in each experiment established tumors ranging in size from approximately 100 to 200 mm^3. There were ten mice per treatment group. […] 75 mg/kg 5-FU and 20 mg/kg Avastin were administered ip and iv at a dosage of 75 mg/kg/dose and 20 mg/kg/dose, respectively, q4d, injected in a volume of 0.1 mL/10 g body weight.
Animals were observed daily for mortality. Tumor dimensions and body weights were collected twice weekly starting with the first day of treatment and including the day of study termination. When the median tumor in the vehicle-treated control group in each study reached approximately 4,000 mg, the study was terminated. Tumors from each animal were harvested, wet weights were recorded, and tumors were processed for determination of MVD by CD-31 staining. Tumor weights (mg) were calculated using the equation for an ellipsoid sphere (l×w^2)/2=mm^3, where l and w refer to the larger and smaller dimensions collected at each measurement and assuming unit density (1 mm^3=1 mg).

[2] = test system: CNV and vascular leakage; assay: Vascular leakage and CNV area after laser rupture of Bruch's membrane; type: in vivo, C57BL/6 mice; details: 5 μg intraocular
Description: C57BL/6 mice (n=10) underwent laser rupture of Bruch's membrane in 3 locations in each eye and were given an intraocular injection of 5 μg of sonepcizumab in one eye and vehicle in the contralateral eye. At one week after laser rupture, the mice were given an intraperitoneal injection of 12 μl/g body weight of 1% fluorescein sodium and were euthanized 5 minutes later. The eyes were removed and fixed in PBS-buffered formalin at room temperature for 5 hours. Then the retinas were dissected, washed, and incubated with primary anti-PECAM-1. The retinas were then washed, incubated with secondary antibody (goat anti-rat IgG conjugated with rhodamine), and then flat mounted.
Quantification of CNV lesion area is measured by PECAM-1 staining. Quantification of vascular leakage is measured by fluorescein sodium staining. The total area of leakage from CNV=CNV+leakage (green)−area of CNV (red). Values represent the mean±SEM for n=10 mice/group. […] This is a 50% reduction in neovascularization (p-0.018). […] This is approximately a 38% reduction (p-0.017) in blood vessel leakage.

[3] = LT1009 formulation stability study (visual inspection, syringeability, SE-HPLC); type: physicochemical; details: independent of antibody concentration
Description: Preferred formulations should not only stabilize the antibody, but also be tolerated by patients when injected. […] Additionally, three different storage temperatures (5° C., 25° C., and 40° C.) were also examined (representing actual, accelerated, and temperature stress conditions, respectively). Stability was assessed using representative samples taken from the various formulations at five different time points: at study initiation and after two weeks, 1 month, 2 months, and 3 months. At each time point, testing involved visual inspection, syringeability (by pulling through a 30-gauge needle), and size exclusion high performance liquid chromatography (SE-HPLC). Circular dichroism (CD) spectroscopy was also used to assess protein stability since above a certain temperature, proteins undergo denaturation, followed by some degree of aggregate formation. The observed transition is referred to as an apparent denaturation or “melting” temperature (Tm) and indicate the relative stability of a protein. […]
For a given time point, aliquots from each sample were subjected to a series of standard analyses, including visual inspection, syringeability, pH, SDS-PAGE (under both reducing and non-reducing conditions), SE-HPLC, and IEF. Protein concentrations were determined by UV spectroscopy (OD-280). […]

[4] = test system: RPMI 8226 tumor; assay: RPMI 8226 human myeloma tumor xenograft; type: in vivo, CB17 SCID mice
Description: Nude mice (CB17 SCID, aged 4-5 weeks, weight 18-22 gm, female mice obtained from Harlan) were injected sc with RPMI 8226 cells harvested from tissue culture (˜1×10^7 cells/mouse). When tumors grew to approximately 100 mm^3 in size, animals were pair-matched by tumor size into treatment and control groups (10 mice per group). Initial dosing began Day 1 following pair-matching. Animals in all groups were dosed by weight (0.01 ml per gram; 10 ml/kg). […] Bortezomib was administered by intravenous injection via tail vein once every three days for six treatments (Q3D×6).
Individual and group mean tumor volumes±SEM are recorded twice weekly until study completion beginning Day 1. Final mean tumor volume±SEM for each group are reported at study completion; animals experiencing partial or complete tumor regressions or animals experiencing technical or drug-related deaths are censored from these calculations.

[5] = BIAcore binding of murine anti-S1P mAb to S1P immobilized on chip; details: read-out: affinity (Kd) for S1P
Description: Binding kinetics: The binding kinetics of S1P to its receptor or other moieties has, traditionally, been problematic because of the nature of lipids. Many problems have been associated with the insolubility of lipids. For BIAcore measurements, these problems were overcome by directly immobilizing S1P to a BIAcore chip. Antibody was then flowed over the surface of the chip and alterations in […] were measured to determine the binding characteristics of the antibody to S1P. To circumvent the bivalent binding nature of antibodies, S1P was coated on the chip at low densities. Additionally, the chip was coated with various densities of S1P (7, 20, and 1000 RU) and antibody binding data was globally fit to a 1:1 interaction model.

[6] = LT1009 50 mg/kg IP Q3D to end, Bortezomib iv Q3D×6

Row | Molecule | % Reduction compared to Vehicle-Treated Mice [1] [%] | Final Tumor Weights [1] [mg] | reduction in blood vessel leakage vs saline [2] [%] | reduction in neovascularization vs saline [2] [%] | area of choroidal neovascularization (PECAM-1) ([2]; one week after laser) | area of leakage from choroidal neovascularization (fluorescein) ([2]; one week after laser) | conditions of greatest stability (SE-HPLC) [3] | % Reduction compared to Vehicle-Treated Mice ([4]; LT1009 25 mg/kg IP Q3D to end) [%] | Final Tumor Weights ([4]; LT1009 25 mg/kg IP Q3D to end) [mg] | % Reduction compared to Vehicle-Treated Mice [4, 6] [%] | Final Tumor Weights [4, 6] [mg] | Kd [5] [nM]
1 | LT1009: humanized anti-S1P IgG1/kappa mAb with Cys to Ala in HCDR2, light chain with 5 backmutations; SEQ ID NO: 31/32 | 13 | 2390.63 | ~38 | 50 | approximately 0.015 mm^2 | approximately 0.125 mm^2 | most stable around pH 6 and 450 mM NaCl | 11 | 1860 | 5 | 1978 | –
2 | B1 | – | – | – | – | – | – | – | – | – | – | – | < 0.1
